Measurements from ChEMBL document CHEMBL2046378, “Investigation of chalcones as selective inhibitors of the breast cancer resistance protein: critical role of methoxylation in both inhibition potency and cytotoxicity” (J Med Chem, 2012).

How the values were obtained:
ABCG2 [1] = target: T1, ABCG2 (Homo sapiens, UniProt Q9UNQ0); assay: Inhibition of ABCG2-mediated mitoxantrone efflux expressed in HEK293 cells at 2 uM after 48 hrs by flow cytometric analysis; format: cell-based; settings: HEK293 cells expressing ABCG2, probe mitoxantrone
T1 sequence (Q9UNQ0 whole entry): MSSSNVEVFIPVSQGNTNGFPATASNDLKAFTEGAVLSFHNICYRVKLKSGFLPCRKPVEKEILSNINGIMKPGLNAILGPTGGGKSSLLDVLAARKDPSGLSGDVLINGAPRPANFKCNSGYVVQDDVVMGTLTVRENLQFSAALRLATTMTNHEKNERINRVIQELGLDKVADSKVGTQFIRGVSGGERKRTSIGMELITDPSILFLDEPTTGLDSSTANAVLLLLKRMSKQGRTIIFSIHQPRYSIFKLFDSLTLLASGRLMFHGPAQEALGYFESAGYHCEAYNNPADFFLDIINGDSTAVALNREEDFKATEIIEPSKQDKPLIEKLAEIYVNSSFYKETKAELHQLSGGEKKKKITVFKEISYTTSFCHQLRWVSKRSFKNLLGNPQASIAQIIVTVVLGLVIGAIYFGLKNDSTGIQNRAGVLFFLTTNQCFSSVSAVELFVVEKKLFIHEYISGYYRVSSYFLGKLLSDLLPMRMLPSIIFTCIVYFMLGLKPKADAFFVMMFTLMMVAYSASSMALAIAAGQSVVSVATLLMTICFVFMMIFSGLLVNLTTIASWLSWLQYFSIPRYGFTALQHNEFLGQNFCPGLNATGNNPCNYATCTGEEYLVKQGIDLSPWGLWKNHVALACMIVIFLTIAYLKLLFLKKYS

ABCG2 [2] = target: T1, ABCG2; assay: Inhibition of ABCG2-mediated mitoxantrone efflux expressed in HEK293 cells at 10 uM after 48 hrs by flow cytometric analysis; format: cell-based; settings: HEK293 cells expressing ABCG2, probe mitoxantrone
[3] = target: ATP-dependent translocase ABCB1 (Homo sapiens, UniProt P08183); assay: Inhibition of ABCB1-mediated mitoxantrone efflux expressed in HEK293 cells at 10 uM after 48 hrs by flow cytometric analysis; format: cell-based; settings: hek293, 48 h
ABCG2 [4] = assay: Therapeutic index, ratio of IG50 for HEK293 cells to IC50 for ABCG2; format: cell-based; settings: human, read-out: TI
[5] = target: T2, Broad substrate specificity ATP-binding cassette transporter ABCG2 (Homo sapiens, UniProt Q9UNQ0); assay: Inhibition of ABCG2-mediated mitoxantrone efflux expressed in HEK293 cells after 48 hrs by flow cytometric analysis; format: cell-based
T2 sequence (Q9UNQ0 whole entry): T1 sequence (Q9UNQ0 whole entry)

HEK293 = assay: Cytotoxicity against human HEK293 cells transfected with ABCG2 up to 100 uM after 72 hrs by MTT assay; format: ADME, cell-based; settings: hek293, 72 h
[6] = Cytotoxicity against human HEK293 cells transfected with ABCG2 after 72 hrs by MTT assay; format: ADME, cell-based; settings: read-out: IG50
[7] = target: Multidrug resistance-associated protein 1 (Homo sapiens, UniProt P33527); assay: Inhibition of ABCC1-mediated calcein transport expressed in human HEK293 cells at 10 uM after 48 hrs by flow cytometric analysis; format: cell-based; settings: hek293, 48 h
ABCG2 [8] = target: T1, ABCG2; assay: Inhibition of ABCG2-mediated mitoxantrone efflux expressed in HEK293 cells at 5 uM after 48 hrs by flow cytometric analysis; format: cell-based; settings: HEK293 cells expressing ABCG2, probe mitoxantrone

Sequence of ATP-dependent translocase ABCB1 (P08183 whole entry): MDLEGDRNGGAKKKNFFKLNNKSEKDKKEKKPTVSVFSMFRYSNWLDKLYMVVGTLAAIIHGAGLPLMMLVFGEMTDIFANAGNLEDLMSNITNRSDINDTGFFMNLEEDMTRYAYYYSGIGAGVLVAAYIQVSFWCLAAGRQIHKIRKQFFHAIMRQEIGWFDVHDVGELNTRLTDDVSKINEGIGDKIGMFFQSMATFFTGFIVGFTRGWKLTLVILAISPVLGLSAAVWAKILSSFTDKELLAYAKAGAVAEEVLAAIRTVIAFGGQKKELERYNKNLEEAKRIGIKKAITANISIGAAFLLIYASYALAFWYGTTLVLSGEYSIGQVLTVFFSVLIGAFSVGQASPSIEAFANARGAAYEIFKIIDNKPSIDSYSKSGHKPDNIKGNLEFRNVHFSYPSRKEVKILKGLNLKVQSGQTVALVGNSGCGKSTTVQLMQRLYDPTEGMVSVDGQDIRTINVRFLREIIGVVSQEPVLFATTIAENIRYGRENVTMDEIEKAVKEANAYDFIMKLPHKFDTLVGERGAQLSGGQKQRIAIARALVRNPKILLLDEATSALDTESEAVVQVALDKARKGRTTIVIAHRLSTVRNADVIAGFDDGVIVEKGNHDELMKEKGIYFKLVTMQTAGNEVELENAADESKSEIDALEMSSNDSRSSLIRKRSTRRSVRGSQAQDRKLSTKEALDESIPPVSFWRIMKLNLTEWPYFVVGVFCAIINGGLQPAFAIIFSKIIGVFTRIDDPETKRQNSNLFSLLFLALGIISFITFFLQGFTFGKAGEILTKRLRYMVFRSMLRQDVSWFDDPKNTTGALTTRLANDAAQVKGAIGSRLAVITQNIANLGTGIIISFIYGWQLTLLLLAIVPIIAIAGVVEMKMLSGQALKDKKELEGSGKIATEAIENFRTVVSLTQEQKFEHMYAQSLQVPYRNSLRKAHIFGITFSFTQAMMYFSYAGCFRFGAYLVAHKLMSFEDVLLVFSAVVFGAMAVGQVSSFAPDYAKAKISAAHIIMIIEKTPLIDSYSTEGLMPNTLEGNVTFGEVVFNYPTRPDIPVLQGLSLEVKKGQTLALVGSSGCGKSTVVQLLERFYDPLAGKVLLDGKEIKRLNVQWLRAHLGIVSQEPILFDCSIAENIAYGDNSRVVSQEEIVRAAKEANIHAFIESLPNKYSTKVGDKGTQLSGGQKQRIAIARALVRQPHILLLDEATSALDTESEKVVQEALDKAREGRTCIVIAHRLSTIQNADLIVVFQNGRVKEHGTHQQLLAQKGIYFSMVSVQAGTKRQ
Sequence of Multidrug resistance-associated protein 1 (P33527 whole entry): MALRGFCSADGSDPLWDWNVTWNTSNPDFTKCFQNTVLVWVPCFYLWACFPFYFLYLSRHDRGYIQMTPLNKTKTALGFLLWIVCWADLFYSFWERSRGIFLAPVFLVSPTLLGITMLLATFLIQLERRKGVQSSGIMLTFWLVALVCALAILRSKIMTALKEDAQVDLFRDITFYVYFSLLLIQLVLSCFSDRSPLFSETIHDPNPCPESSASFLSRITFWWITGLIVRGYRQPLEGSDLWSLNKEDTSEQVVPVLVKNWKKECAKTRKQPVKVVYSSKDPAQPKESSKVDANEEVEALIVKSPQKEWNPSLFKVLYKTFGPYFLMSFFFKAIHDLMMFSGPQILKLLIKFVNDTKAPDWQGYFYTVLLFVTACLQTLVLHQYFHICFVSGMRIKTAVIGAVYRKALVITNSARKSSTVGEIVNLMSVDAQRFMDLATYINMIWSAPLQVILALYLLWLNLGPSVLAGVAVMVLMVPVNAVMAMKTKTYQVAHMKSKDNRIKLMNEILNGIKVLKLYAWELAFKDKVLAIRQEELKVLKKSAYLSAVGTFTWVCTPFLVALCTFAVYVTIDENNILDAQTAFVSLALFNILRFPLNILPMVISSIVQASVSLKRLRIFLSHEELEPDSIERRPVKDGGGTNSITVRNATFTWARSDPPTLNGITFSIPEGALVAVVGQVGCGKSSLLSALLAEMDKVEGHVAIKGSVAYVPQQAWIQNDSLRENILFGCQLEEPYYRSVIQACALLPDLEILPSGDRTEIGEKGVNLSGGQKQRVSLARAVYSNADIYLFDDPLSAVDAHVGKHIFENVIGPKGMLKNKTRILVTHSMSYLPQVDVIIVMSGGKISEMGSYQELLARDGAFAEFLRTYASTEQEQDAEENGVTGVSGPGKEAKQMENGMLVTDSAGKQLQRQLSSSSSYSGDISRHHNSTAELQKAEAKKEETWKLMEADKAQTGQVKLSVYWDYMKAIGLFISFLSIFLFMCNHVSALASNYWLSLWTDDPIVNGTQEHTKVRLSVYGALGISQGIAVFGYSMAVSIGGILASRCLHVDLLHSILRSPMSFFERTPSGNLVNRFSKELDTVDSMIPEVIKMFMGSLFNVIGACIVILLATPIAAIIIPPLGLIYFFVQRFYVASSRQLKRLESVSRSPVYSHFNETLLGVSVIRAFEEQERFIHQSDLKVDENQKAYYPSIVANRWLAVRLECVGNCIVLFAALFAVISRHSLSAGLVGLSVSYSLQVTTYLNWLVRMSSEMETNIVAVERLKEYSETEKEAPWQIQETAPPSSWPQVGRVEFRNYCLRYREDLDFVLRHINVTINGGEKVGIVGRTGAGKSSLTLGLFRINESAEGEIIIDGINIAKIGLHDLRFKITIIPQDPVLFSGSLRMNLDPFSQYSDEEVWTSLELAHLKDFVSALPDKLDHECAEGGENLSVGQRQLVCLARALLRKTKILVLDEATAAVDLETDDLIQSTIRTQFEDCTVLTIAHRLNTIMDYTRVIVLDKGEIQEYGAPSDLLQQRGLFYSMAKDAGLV

Row | Structure (SMILES) | inhibition at 48 h, 2 µM (ABCG2 [1]) | inhibition at 48 h, 10 µM (ABCG2 [2]) | inhibition (INH) [3] | selectivity ratio (ABCG2 [4]) | IC50 [5] | Activity (HEK293) | GI50 at 72 h [6] | inhibition (INH) [7] | inhibition at 48 h, 5 µM (ABCG2 [8])
1 | COc1ccc(C(=O)/C=C/c2cn(C)c3ccccc23)cc1 | 55.5% | 89% |  |  |  |  |  |  | 
2 | COc1ccc(/C=C/C(=O)c2cn(C)c3ccccc23)c(OC)c1 | 83.8% | 108% |  |  |  |  |  |  | 
3 | COc1cccc(OC)c1/C=C/C(=O)c1cn(C)c2ccccc12 | 104% | 113% | Not Active | 185 | 270 nM | Non-toxic | 50000 nM | Not Active | 
4 | COc1cc(OC)c(/C=C/C(=O)c2cn(C)c3ccccc23)c(OC)c1 | 93.8% | 109% | Not Active | 9 | 450 nM | Non-toxic | 4000 nM | Not Active | 
5 | COc1cc(/C=C/C(=O)c2cn(C)c3ccccc23)cc(OC)c1OC | 49.3% | 70% |  |  |  |  |  |  | 
6 | COc1cc(OC)c(/C=C/C(=O)c2cn(C)c3ccc(OC)cc23)c(OC)c1 | 89.1% | 111% | Not Active | 3 | 350 nM | Non-toxic | 1000 nM | Not Active | 
7 | Cn1cc(/C=C/C(=O)c2cn(C)c3ccccc23)c2ccccc21 | 52.1% | 98.8% |  |  |  |  |  |  | 
8 | COc1ccc(C(=O)/C=C/c2cn(C)c3ccccc23)c(OC)c1 | 88.2% | 125% |  |  |  |  |  |  | 
9 | COc1cc(OC)c(C(=O)/C=C/c2cn(C)c3ccccc23)c(OC)c1 | 3.7% | 30% |  |  |  |  |  |  | 
10 | COc1cccc(OC)c1C(=O)/C=C/c1cn(C)c2ccccc12 | 2.9% | 17.4% |  |  |  |  |  |  | 
11 | COc1cc(O)c(C(=O)/C=C/c2c(OC)cccc2OC)c(OC)c1 |  |  | Not Active |  | 350 nM | Non-toxic | 50000 nM | Not Active | 
12 | COc1ccc(C(=O)/C=C/c2ccc(OC)c(OC)c2)c(O)c1 | 71.1% | 76.5% |  |  |  |  |  |  | 
13 | COc1cc2c(cc1OC)CN(CCc1ccc(NC(=O)c3cccc4c(=O)c5cccc(OC)c5[nH]c34)cc1)CC2 |  |  |  |  |  |  |  |  | 100%
14 | COc1cc(/C=C/C(=O)c2c(O)cc(OC)cc2OC)cc(OC)c1 |  |  | Not Active |  | 170 nM | Non-toxic | 6000 nM | Not Active | 
15 | COc1cccc(/C=C/C(=O)c2c(O)cc(OC)cc2OC)c1 |  |  | Not Active |  | 260 nM | Non-toxic | 10000 nM | Not Active | 
